Holding throughout (assay): inhibition of tumour cell growth, NCI panel, 48 h
Assay [1] concerns SK-MEL-2 melanoma.
In assay [2] the test system is HT29 colon.
For assay [3], the system named is OVCAR-3 ovarian.
Assay [4] has as its system IGROV1 ovarian.
Assay [5] has as its system NCI-H460 lung.
In assay [6] the test system is A498 renal.
Assay [7] deals with UACC-62 melanoma.
Assay [8] relates to HL-60(TB) leukemia.
The test system of assay [9] is SK-MEL-5 melanoma.
Assay [10] relates to HCT-116 colon.

Where “and” joins values, the source holds several entries; their conditions need not be identical. Identical values can stand only once.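 Method: 48-hour compound exposure of cells in 96-well plates, five concentrations, linear interpolation of endpoints. GI50 = concentration required for 50% inhibition of growth. TGI marks complete inhibition of growth.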

For the molecule `CC/C=C1\N=C(c2ccc(Cl)cc2)OC1=O`, the TGI in assay [1], in [2], in assay [3], in [4], in assay [5] and in [6] was greater than 100 µM throughout. The TGI in assay [7] and in assay [8] was greater than 100 µM in each case.
With `OCCCN=NNc1ccc(-c2nc3ccccc3[nH]2)cc1`, the GI50 was 14.5 µM in assay [1]; 2.31 µM in assay [3]; 5.26 µM in [4]; 15.6 µM in [9]; 4.65 µM in assay [5]; 17.6 µM in [7]. Besides, the GI50 in [8] is 25.2 µM. The TGI in assay [1] is 48.1 µM; in assay [3], 5.13 µM; in assay [4], 45.8 µM; in [9], 88.6 µM; in assay [5], greater than 100 µM; in assay [7] it was 50.8 µM. In assay [8], this molecule yielded a TGI of 96.2 µM.
Turning to `COc1ccc(/C=C2\CCCCC2=O)cc1`, the TGI in assay [2], in assay [3], in [4], in assay [9], in [10] and in assay [5] was greater than 100 µM throughout. Moreover, the TGI in [6], in [7] and in [8] was greater than 100 µM in each case.
As for `CCn1cc(/C=C/C(C)c2cn(CC)c(=O)[nH]c2=O)c(=O)[nH]c1=O` (stereo not drawn), the TGI in assay [1], in assay [2], in assay [3], in [4], in assay [9] and in assay [5] was greater than 100 µM throughout. Also, the TGI in [7] and in [8] was greater than 100 µM throughout.
Regarding `O=C1C(Br)=CC2(C=C1Br)CCN=c1c2c(O)c2nc3ccccc3c3ccnc1c23`, the GI50 in assay [2] was 1.07 µM; in [3] it was 1.51 µM; in [4], 0.846 µM; in [9] it was 1.4 µM; in assay [10] it was 0.674 µM; in assay [5] it was 2.48 µM. Moreover, the GI50 in [6] was 1.6 µM; in assay [7], 3.31 µM; in [8], 2.07 µM. The TGI in assay [2] came out at 3.02 µM; in assay [3], 8.14 µM; in assay [4], 7.22 µM; in [9], 6.93 µM; in assay [10] it was 6.15 µM; in [5] it was 10.6 µM. Also, the TGI in assay [6] came out at 6 µM; in [7], 10.7 µM; in assay [8] it was 5.59 µM.
Regarding `CCN(CC)CCCNc1cccc2c(SCc3ccccc3)ccnc12`, the GI50 in assay [1] was 1.89 µM; in assay [2], 0.907 µM; in [3] it was 1.75 µM; in assay [4], 1.9 µM; in [9], 1.68 µM; in assay [10] it was 1.6 µM. Further, the results for the GI50 in [5], in assay [6] and in [7] were 1.7 µM, 1.92 µM and 1.74 µM, respectively. Also, the TGI in [1] worked out at 3.56 µM; in assay [2], 2.3 µM; in [3] it was 3.43 µM; in assay [4] it was 3.75 µM; in [9] it was 3.08 µM; in assay [10], 2.95 µM. Also, the TGI in assay [5] was found to be 3.45 µM; in assay [6], 4.98 µM; in [7], 3.37 µM.
In the case of `O=C(O)C1C(C(=O)Nc2ccc3c(c2)Cc2ccccc2-3)C2(Cl)C(Cl)=C(Cl)C1(Cl)C2(Cl)Cl` (stereo not drawn), the TGI in assay [1] turned out to be 36.2 µM; in assay [2], 41.7 µM; in [3] it was 35.9 µM; in assay [4], 44.4 µM; in assay [9], 27.5 µM; in assay [10] it was 38.1 µM. Also, the TGI was determined as 47.7 µM in [6], 31.1 µM in assay [7] and 55.8 µM in assay [8].
Take `COc1ccc(C2=NNC(=O)OC2c2ccccc2)cc1` (stereo not drawn): the TGI in assay [1], in assay [2], in assay [3], in assay [4], in assay [10] and in assay [5] was greater than 100 µM throughout. Also, the TGI in assay [6], in assay [7] and in [8] was greater than 100 µM throughout.
As for `Brc1ccc(-c2nnc(-c3nn(-c4ccccc4)c4nc5ccccc5nc34)o2)cc1`, the TGI in assay [1] was greater than 100 µM; in assay [2], greater than 100 µM; in assay [3] it was greater than 100 µM; in [4] it was greater than 100 µM; in assay [9], 84.5 µM; in assay [10] it was greater than 100 µM. In addition, the TGI in assay [5], in assay [7] and in [8] was greater than 100 µM in each case.
As for `N#CC(C(=O)/C(=N\Nc1nc(=S)[nH]n1N)C(C#N)c1ccc(Cl)cc1)c1ccc(Cl)cc1` (stereo not drawn), the TGI in assay [1], in [2], in assay [3], in assay [4], in assay [10] and in assay [5] was greater than 100 µM each time. In addition, the TGI in assay [6] and in assay [7] was greater than 100 µM each time.
As for `CC[C@H]1CN2CCc3cc(OC)c(OC)cc3[C@@H]2C[C@@H]1C[C@H]1NCCc2cc(O)c(OC)cc21`, the TGI in assay [1] was 0.0493 µM and 0.0294 µM and 0.0532 µM; in assay [2], 0.0551 µM and 0.0171 µM and 0.047 µM; in assay [3], 0.0774 µM and 0.287 µM; in assay [9], 0.0424 µM and 0.0157 µM and 0.114 µM; in [5] it was 0.0586 µM and 0.0651 µM and 0.186 µM; in assay [6], 0.0461 µM and 0.0583 µM. Besides, the TGI in [7] is 0.0725 µM and 0.0247 µM and 0.105 µM; in [8] it was 0.0408 µM and 0.031 µM. In addition, the GI50 in assay [6] was 0.0165 µM and 0.025 µM.
For `CCCCCCCC/C=C/CCCCCCCCC1=NCCN1CCO`, the GI50 in [1] was 11.9 µM; in assay [2], 2.16 µM; in [3], 11.5 µM; in assay [4] it was 2.58 µM; in assay [9] it was 5.84 µM; in assay [5], 1.81 µM. For the same molecule, the GI50 in assay [6] was 2.34 µM; in [7] it was 3.05 µM; in assay [8] it was 2.45 µM. In addition, the TGI in [1] was determined as 25.1 µM; in assay [2], 5.21 µM; in assay [3], 25.7 µM; in assay [4] it was 6.19 µM; in assay [9], 19.9 µM; in assay [5], 3.32 µM. For the same molecule, the TGI in assay [6] is 15.5 µM; in [7], 11 µM; in [8] it was 6.35 µM.
For the molecule `CC(C)(C)NN=C1C(C)(C)C(=NNC(C)(C)C)C1(C)C`, the TGI in assay [2], in [3], in assay [4], in assay [9], in [10] and in [5] was greater than 100 µM each time. The TGI in assay [7] and in [8] was greater than 100 µM each time.
In the case of `Cc1ccc(NC(=O)c2cccc([N+](=O)[O-])c2O)c([N+](=O)[O-])c1`, the TGI in [2] stood at 69.9 µM; in assay [3] it was 44.1 µM; in assay [4] it was 44.9 µM; in assay [10] it was 30.3 µM; in assay [5], 18.9 µM; in assay [6] it was 31.5 µM. Besides, the TGI in [7] is 24.8 µM; in assay [8], greater than 100 µM.
Take `CN(C)c1ccc(N=Cc2c([O-])ccc3ccccc23)cc1.[C-]#[O+].[C-]#[O+].[Ir]`: the GI50 in assay [2] is 19.2 µM; in assay [3] it was 16.6 µM; in assay [4], 21.1 µM; in [9], 16.4 µM; in assay [10], 17.7 µM; in [6], 22.1 µM. Further, in assay [7], the GI50 is 17.2 µM. Besides, the TGI came to 40.7 µM in assay [2]; 32.4 µM in assay [3]; 65 µM in assay [4]; 31.2 µM in assay [9]; 32.1 µM in assay [10]; 51.5 µM in assay [6]. Further, the TGI in assay [7] was 35.9 µM.
As to `CCCN(CCCC(NC(C)=O)C(=O)NCc1ccccc1)C(=O)NC` (stereo not drawn), the TGI in assay [1], in [2], in assay [3], in assay [4], in [9] and in [10] was greater than 100 µM in each case. For the same molecule, the TGI in [5], in assay [6] and in assay [7] was greater than 100 µM each time.
Turning to `CSc1cnn(CCC#N)c(=O)n1`, the TGI in [2], in [4], in assay [9], in assay [10], in assay [6] and in assay [7] was greater than 100 µM in each case. The molecule further registered a TGI in assay [8] greater than 100 µM.
As for `CN(C)c1ccc(C(=C2C=CC(=[N+](C)C)C=C2)c2ccc(N(C)C)cc2)cc1` (tested in a mixture with another compound), the TGI is 0.545 µM in [1]; greater than 100 µM in [2]; 0.949 µM in assay [3]; 1.78 µM in assay [4]; 0.289 µM in assay [9]; 1.02 µM in assay [10]. For the same molecule, the TGI in assay [6] was 0.343 µM; in [7] it was 1.24 µM; in [8] it was 0.677 µM. Besides, the GI50 is 0.0411 µM in assay [2]; 0.133 µM in assay [3]; 0.161 µM in [4]; 0.133 µM in assay [9]; 0.039 µM in assay [10]; 0.0607 µM in assay [6]. Further, the GI50 in assay [8] was 0.125 µM.
In the case of `COc1ccc2oc3c4c2c1CCC4CCC3=O` (stereo not drawn), the TGI in [1], in assay [2], in assay [3], in assay [4], in assay [9] and in assay [5] was greater than 100 µM each time. The TGI in [6], in assay [7] and in [8] was greater than 100 µM throughout.
Turning to `CC1=CC(=O)CCC2(C)C1CC[C@@H]2OC=O` (stereo partly drawn), the TGI in [1], in assay [2], in assay [3], in assay [4], in assay [9] and in [10] was greater than 100 µM throughout. Further, the TGI in assay [5], in [7] and in [8] was greater than 100 µM in each case.
Consider `Cn1c2c(c3ccccc31)C1CCCCC1C1C(=O)NC(=O)C21` (stereo not drawn), for which the TGI in assay [2] is greater than 100 µM; in assay [3], 58 µM; in assay [4], greater than 100 µM; in assay [9], greater than 100 µM; in assay [5] it was greater than 100 µM; in assay [6], greater than 100 µM. Moreover, the figures for the TGI in [7] and in assay [8] were greater than 100 µM and 63.5 µM, respectively.
`O=C(OCc1ccccc1)N1CCN(/[N+]([O-])=N/Oc2ccc([N+](=O)[O-])cc2[N+](=O)[O-])CC1`: the GI50 in assay [1] was 19.1 µM; in [2] it was 10.4 µM; in [3], 3.01 µM; in assay [4], 2.01 µM; in assay [9], 6.43 µM; in assay [10] it was 2.15 µM. Moreover, the GI50 was 9.96 µM in [5], 6.72 µM in assay [7] and 18.8 µM in assay [8]. Moreover, the TGI in [1] is 57 µM; in [2], greater than 100 µM; in assay [3] it was 6.96 µM; in assay [4] it was 23.2 µM; in [9] it was 21.1 µM; in assay [10], 7.55 µM. In addition, the TGI in assay [5] was 40.6 µM; in assay [7], 20.8 µM; in assay [8], 57.3 µM.
`CN1C2(c3ccccc3)c3c(-c4ccccc4)sc(-c4ccccc4)c3C1(c1ccccc1)C1C(=O)N(c3ccccc3)C(=O)C12` (stereo not drawn): the TGI in assay [2], in assay [3], in assay [4], in [9], in [10] and in assay [5] was greater than 100 µM each time. For the same molecule, the TGI in assay [6], in assay [7] and in [8] was greater than 100 µM in each case.
Consider `COc1ccc(C(O)/C(=N\NC(N)=S)c2nc3ccc([N+](=O)[O-])cc3[nH]c2=O)cc1OC` (stereo not drawn), for which the TGI in assay [1], in assay [2], in assay [4], in assay [5], in assay [6] and in [7] was greater than 100 µM in each case. In addition, the TGI in [8] was greater than 100 µM.
Regarding `COC1(OC)CC2C=C(S(=O)(=O)c3ccccc3)C1N(Cc1ccccc1)C2=O` (stereo not drawn), the TGI was 93.7 µM in assay [2]; 56.6 µM in [3]; greater than 100 µM in [4]; greater than 100 µM in [9]; 30 µM in [10]; greater than 100 µM in [5]. In addition, the TGI was 57.1 µM in assay [6], 58.4 µM in assay [7] and 50.5 µM in assay [8].

Source of the values: PubChem BioAssay (NCI).
